Measured values as given in PubChem BioAssay (NCI).
Values joined by “and” are separate entries in the source; they are usually repeats but may differ in a detail not shown here. Identical values can stand only once.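 These data come from cells grown in 96-well plates and exposed to compound for 48 hours at five concentrations. GI50 is the concentration that inhibits growth by half. TGI is the concentration that stops growth completely.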

What follows are compounds tested on NCI-H522 lung (assay: NCI tumour cell line growth inhibition, 48 h).

Row | Compound | GI50 [µM] | TGI [µM]
1 | CC/C=C\C[C@H](O)C/C=C1/C(=O)C(Cl)=C[C@@H]1C/C=C\CCCC(=O)OC | 0.271 | 0.592
2 | c1ccc(-c2nnc(-c3ccccn3)s2)nc1 | > 100 | > 100
3 | CN1CCN(C2CCN(C(=O)Nc3cc(Oc4ccc(NC(=O)C5(C(=O)Nc6ccc(F)cc6)CC5)c(F)c4)ccn3)CC2)CC1 |  | > 2.66
4 | CCN1CCN(C(=O)[C@@]2(C)CC[C@]3(C)CC[C@]4(C)C(=CC(=O)[C@@H]5[C@@]6(C)CC[C@H](OC7C[C@@H](O)[C@@H](O)C(C)O7)C(C)(C)[C@@H]6CC[C@]54C)[C@@H]3C2)CC1 (stereo partly specified) | 1.59 | 6.15
5 | Nc1nn2cc(F)cnc2c1C(=O)Nc1cncc(F)c1N1CCC(C(=O)N2CCN(C3COC3)CC2)CC1 | 0.427 | 3.05

What follows are compounds tested on SF-539 CNS (assay: NCI tumour cell line growth inhibition, 48 h).

Row | Compound | GI50 [µM] | TGI
6 | Oc1ccc(Nc2ncnc3c2sc2ncccc23)cc1 | 0.0266 | 0.293 µM
7 | COc1cccc(CC(C)=C(c2ccc(OCCN(C)C)cc2)c2ccc(OCCN(C)C)cc2)c1 | 0.589 | 1.1 µM
8 | COC(=O)COc1ccccc1/C=C1\N=C(c2ccccc2)N(c2cc(C(F)(F)F)ccc2Cl)C1=O | 42.7 | > 100 µM
9 | C=C1C(=O)OC2CC(C)C(C(CC(C)=O)OC(C)=O)=CCC12 (stereo unspecified) |  | 69.3 µM
10 | CC(=O)OC1COC(Oc2c(C)c3c4c(c2O)[C@@H](C)CC[C@@H]4[C@@H](C)C[C@H]3C=C(C)C)C(O)C1OC(C)=O (stereo partly specified) | 22.4 | 42.6 µM
11 | S=C(Nc1ccc(Cl)cc1)Nc1ccc(-c2nc3ccccc3s2)cc1 | 17.5 | 34 µM
12 | O=c1/c(=C/c2ccccc2[N+](=O)[O-])sc2nnc(-c3ccco3)n12 |  | 33.9 µM
13 | COC(=O)C[C@](O)(CCCC(C)(C)O)C(=O)O[C@@H]1C(OC)=C[C@]23CCCN2CCc2cc4c(cc2[C@H]13)OCO4 | 0.0195 | 0.264 µM and 0.0539 µM
14 | C[N+](C)(C)CC1CCCc2ccccc2C1=O (stereo unspecified) | 8.75 | 31.7 µM
15 | COc1cc(C(=O)N2CCN(C=O)C2=S)cc(OC)c1OC | 21.3 | 43.2 µM
16 | Cn1c(I)c(C#CCO[Si](C)(C)C(C)(C)C)c(=O)[nH]c1=O | 16.9 | 30.9 µM
17 | CCCCC#CC1=C(Br)C(=O)OC1 | 2.52 | 14.4 µM
18 | Cc1ccc(SC2c3ccc(C)cc3Oc3nc(N)c(C#N)c(N)c32)cc1 (stereo unspecified) | 1.8 | 3.82 µM
19 | Cc1cn2c(=O)c3ncn(C4OC(CO)C(O)C4O)c3n(C)c2n1 (stereo unspecified) |  | > 100 µM
20 | O=C(Nc1ccc(Br)cc1F)c1cc(F)ccc1O | 0.42 | 4.2 µM
21 | CC/C=C\C[C@H](O)C/C=C1/C(=O)C(Cl)=C[C@@H]1C/C=C\CCCC(=O)OC | 0.818 | 3.05 µM
22 | c1ccc(-c2nnc(-c3ccccn3)s2)nc1 | > 100 | > 100 µM
23 | CN1CCN(C2CCN(C(=O)Nc3cc(Oc4ccc(NC(=O)C5(C(=O)Nc6ccc(F)cc6)CC5)c(F)c4)ccn3)CC2)CC1 | 0.994 | > 2.2 µM
24 | CCN1CCN(C(=O)[C@@]2(C)CC[C@]3(C)CC[C@]4(C)C(=CC(=O)[C@@H]5[C@@]6(C)CC[C@H](OC7C[C@@H](O)[C@@H](O)C(C)O7)C(C)(C)[C@@H]6CC[C@]54C)[C@@H]3C2)CC1 (stereo partly specified) | 0.937 | 1.85 µM
25 | Nc1nn2cc(F)cnc2c1C(=O)Nc1cncc(F)c1N1CCC(C(=O)N2CCN(C3COC3)CC2)CC1 | 0.164 | 0.571 µM
